*1 amine or outer side, *2 acyl side, *3 side chain or, on linkers, in order; H or OH if unused. Where a SMILES comes first, the peptide text is derived from it. Bridges are numbered along the chain shown (N, C = ends). [ ]: non-standard residue; d: D form. The star is where a group is joined. hPhe(3,5-F2-4-CF3) = N[C@@H](CCc1cc(F)c(C(F)(F)F)c(F)c1)C(=O)O; hPhe(3-Cl-4-CF3) = N[C@@H](CCc1ccc(C(F)(F)F)c(Cl)c1)C(=O)O; X39 = O=C([C@H](Cc1ccc(C(F)(F)F)cc1)N(CC1CCC1)[*:1])[*:2]; NPrPhe(4-CF3) = CCCN[C@@H](Cc1ccc(C(F)(F)F)cc1)C(=O)O; NMeGly(cPent) = CN[C@H](C(=O)O)C1CCCC1; Ac4c(3,3-F2) = NC1(C(=O)O)CC(F)(F)C1; NMeD = CN[C@@H](CC(=O)O)C(=O)O; NMeL = CN[C@@H](CC(C)C)C(=O)O; X10 = N#CCN(CC(=O)[*:2])[*:1]; Morpholide = C1CN(*)CCO1; NMeA = CN[C@@H](C)C(=O)O; Ac5c = NC1(C(=O)O)CCCC1; Aze = O=C(O)[C@@H]1CCN1; Sar = CNCC(=O)O
Key:
[1] = target: GDP-bound NRAS wild-type protein (Homo sapiens, UniProt P01111); test: Binding to NRAS by surface plasmon resonance (SPR), KD and KD ratio to KRAS
Sequence of GDP-bound NRAS wild-type protein (P01111 whole entry): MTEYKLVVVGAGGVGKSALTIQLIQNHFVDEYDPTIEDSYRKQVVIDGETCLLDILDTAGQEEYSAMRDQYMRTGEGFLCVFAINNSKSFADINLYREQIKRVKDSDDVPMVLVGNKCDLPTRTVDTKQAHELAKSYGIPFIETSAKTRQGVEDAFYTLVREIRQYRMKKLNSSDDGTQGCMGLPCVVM
Procedure, shortened: (§1)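 Affinity is measured by surface plasmon resonance at 30°C against captured, GDP-loaded RAS carrying a biotinylated Avi tag. Compounds are titrated by single-cycle kinetics, and KD comes from a 1:1 fit.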

HRAS wild-type protein = HRAS wild-type protein (Homo sapiens, UniProt P01112); test: Binding to HRAS by surface plasmon resonance (SPR), KD and KD ratio to KRAS
Sequence of HRAS wild-type protein (P01112 whole entry): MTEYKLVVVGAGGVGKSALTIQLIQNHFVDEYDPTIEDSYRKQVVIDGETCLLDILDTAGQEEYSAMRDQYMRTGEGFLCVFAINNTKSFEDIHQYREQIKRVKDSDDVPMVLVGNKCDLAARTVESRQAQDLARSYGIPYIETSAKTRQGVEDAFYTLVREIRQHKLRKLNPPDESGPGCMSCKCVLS
Procedure, shortened: as §1

[2] = test system: human lung cancer strain NCI-H441; type: cell-based
Procedure, shortened: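 Readout: […] after the ATP-based reagent. Compound: serial dilutions in dimethyl sulfoxide.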

[3] = ratio of KD for GDP-bound NRAS wild-type protein to KD for KRAS
[4] = ratio of KD for HRAS wild-type protein to KD for KRAS
[5] = ratio of the KD value with respect to GDP-bound NRAS wild-type protein to the KD value with respect to KRAS
[6] = ratio of the KD value with respect to HRAS wild-type protein to the KD value with respect to KRAS

Row | IC50 [2] | SMILES | NRAS /KRAS [1, 3] | HRAS /KRAS (HRAS wild-type protein; [4]) | NRAS /KRAS [1, 5] | HRAS /KRAS (HRAS wild-type protein; [6]) | NRAS /KRAS ([1]; ratio of KD value for GDP-bound NRAS wild-type protein to KD value for KRAS (SPR)) | HRAS /KRAS (HRAS wild-type protein; ratio of KD value for HRAS wild-type protein to KD value for KRAS (SPR))
1 | 9.3 nM | CCCN1C(=O)[C@@H]2CCN2C(=O)CN(CC#N)C(=O)[C@H]([C@@H](C)CC)NC(=O)[C@H](CC(C)C)N(C)C(=O)C[C@@H](C(=O)N2CCOCC2)N(C)C(=O)[C@H](C2CCCC2)N(C)C(=O)C2(CCCC2)NC(=O)[C@@H]2CCCN2C(=O)[C@H](CCc2ccc(C(F)(F)F)c(Cl)c2)NC(=O)CN(C)C(=O)[C@@H]1Cc1ccc(C(F)(F)F)cc1 [PP0275] ([NMeL]I[X10][Aze][NPrPhe(4-CF3)][Sar][hPhe(3-Cl-4-CF3)]P[Ac5c][NMeGly(cPent)][NMeD]-Morpholide; lactam N-11) | C (A compound having a KD ratio of 0.1 or more and less than 3 is denoted as C) | C (A compound having a KD ratio of 0.1 or more and less than 3 is denoted as C) |  |  |  | 
2 | 399 nM | CC[C@H](C)[C@@H]1NC(=O)[C@H](CC(C)C)N(C)C(=O)C[C@@H](C(=O)N2CCOCC2)N(C)C(=O)[C@H](C2CCCC2)N(C)C(=O)C2(CC2)NC(=O)[C@@H]2CCCN2C(=O)[C@H](CCc2cc(F)c(C(F)(F)F)c(F)c2)NC(=O)CN(C)C(=O)[C@H](Cc2ccc(C(F)(F)F)cc2)N2CCCCC[C@@H](C2=O)N(C)C(=O)CN(C)C1=O [PP0496] |  |  | B (a compound having 3 or more and less than 10 is denoted as B) | B (a compound having 3 or more and less than 10 is denoted as B) |  | 
3 | 21.7 nM | CC[C@H](C)[C@@H]1NC(=O)[C@H](CC(C)C)N(C)C(=O)C[C@@H](C(=O)N2CCOCC2)N(C)C(=O)[C@H](C2CCCC2)N(C)C(=O)C2(CCCC2)NC(=O)[C@@H]2CCCN2C(=O)[C@H](CCc2ccc(C(F)(F)F)c(Cl)c2)NC(=O)CN(C)C(=O)[C@H](Cc2ccc(C(F)(F)F)cc2)N(CC2CCC2)C(=O)[C@@H]2CCN2C(=O)[C@H](C)N(C)C1=O [PP0109] ([NMeL]I[NMeA][Aze][X39][Sar][hPhe(3-Cl-4-CF3)]P[Ac5c][NMeGly(cPent)][NMeD]-Morpholide; lactam N-11) | C (A compound having a KD ratio of 0.1 or more and less than 3 is denoted as C) | B (a compound having 3 or more and less than 10 is denoted as B) |  |  |  | 
4 | 5.5 nM | CCCOC[C@H]1C(=O)N[C@@H]([C@@H](C)CC)C(=O)N(C2CC2)CC(=O)N(C)[C@H]2C/C=C\CCN(C2=O)[C@@H](Cc2ccc(C)cc2)C(=O)N(C)CC(=O)N[C@@H](CCc2ccc(C(F)(F)F)c(OC)c2)C(=O)N2C[C@H](OCC)C[C@H]2C(=O)N(C)C2(CCC2)C(=O)N(C)[C@@H](C2CCCC2)C(=O)N(C)[C@H](C(=O)N(C)C)CC(=O)N1C [PP2330] |  |  | A (a compound having 10 or more and less than 20 is denoted as A) | A (a compound having 10 or more and less than 20 is denoted as A) |  | 
5 | 11.6 nM | CC[C@H](C)[C@@H]1NC(=O)[C@H](CC(C)C)N(C)C(=O)C[C@@H](C(=O)N(C)C)N(C)C(=O)[C@H](C2CCCC2)N(C)C(=O)C2(CCC2)NC(=O)[C@@H]2CC(F)(F)CN2C(=O)[C@H](CCc2ccc(C(F)(F)F)c(Cl)c2)NC(=O)CN(C)C(=O)[C@H](Cc2ccc(F)cc2)N2CCCCC[C@@H](C2=O)N(C)C(=O)CN(C)C1=O [PP0973] | B (a compound having 3 or more and less than 10 is denoted as B) | B (a compound having 3 or more and less than 10 is denoted as B) |  |  |  | 
6 | 1.5 nM | CCCN(C)C(=O)[C@@H]1CC(=O)N(C)[C@@H](COC)C(=O)N[C@@H]([C@@H](C)CC)C(=O)N(C)CC(=O)N(C)[C@H]2C/C=C\CCN(C2=O)[C@@H](Cc2ccc(C(F)(F)F)cc2)C(=O)N(C)CC(=O)N[C@@H](CCc2ccc(C(F)(F)F)c(OC)c2)C(=O)N2C[C@H](OCC)C[C@H]2C(=O)NC2(CC(C)(C)C2)C(=O)N(C)[C@@H](C2CCCC2)C(=O)N1C [PP1656] |  |  |  |  | AA (a compound having 20 or more is denoted as AA) | A (a compound having 10 or more and less than 20 is denoted as A)
7 | 1990 nM | CCO[C@@H]1C[C@H]2C(=O)NC3(CCC3)C(=O)N(C)[C@@H](CC(F)F)C(=O)N(C)[C@H](C(=O)N3CCOCC3)CC(=O)N(C)[C@@H](CC(C)C)C(=O)N[C@@H]([C@@H](C)CC)C(=O)N(C)CC(=O)N(C)[C@H]3CCCCCN(C3=O)[C@@H](Cc3ccc(C(F)(F)F)cc3)C(=O)N(C)CC(=O)N[C@@H](CCc3cc(F)c(C(F)(F)F)c(F)c3)C(=O)N2C1 [PP0822] | B (a compound having 3 or more and less than 10 is denoted as B) | B (a compound having 3 or more and less than 10 is denoted as B) |  |  |  | 
8 | 45.9 nM | CCO[C@@H]1C[C@H]2C(=O)NC3(CCC3)C(=O)N(C)[C@@H](C3CCCC3)C(=O)N(C)[C@H](C(=O)N(C)C)CC(=O)N(C)[C@@H](CC)C(=O)N[C@@H]([C@@H](C)CC)C(=O)N(C)CC(=O)N(C)[C@H]3CCCCN(C3=O)[C@@H](Cc3ccc(C(F)(F)F)cc3)C(=O)N(C)CC(=O)N[C@@H](CCc3ccc(OC(F)F)c(F)c3)C(=O)N2C1 [PP0986] | C (A compound having a KD ratio of 0.1 or more and less than 3 is denoted as C) | C (A compound having a KD ratio of 0.1 or more and less than 3 is denoted as C) |  |  |  | 
9 | 6.3 nM | CCO[C@@H]1C[C@H]2C(=O)N(C)C3(CC(C)(C)C3)C(=O)N(C)[C@@H](C3CCCC3)C(=O)N(C)[C@H](C(=O)N(C)C)CC(=O)N(C)[C@H]3CCCC/C=C/c4ccc(cc4)C[C@@H](C(=O)N(C)CC(=O)N[C@@H](CCc4ccc(Cl)c(Cl)c4)C(=O)N2C1)N1CC/C=C\C[C@@H](C1=O)N(C)C(=O)CN(C)C(=O)[C@H]([C@@H](C)CC)NC3=O [PP3062] | A (a compound having 10 or more and less than 20 is denoted as A) | A (a compound having 10 or more and less than 20 is denoted as A) |  |  |  | 
10 | 17.7 nM | CCO[C@@H]1C[C@H]2C(=O)NC3(CC(C)(C)C3)C(=O)N(C)[C@@H](C(CC)CC)C(=O)N(C)[C@H](C(=O)N(C)C)CC(=O)N(C)[C@@H](CC)C(=O)N[C@@H]([C@@H](C)CC)C(=O)N(C)CC(=O)N(C)[C@H]3C/C=C\CCN(C3=O)[C@@H](Cc3ccc(C)cc3)C(=O)N(C)CC(=O)N[C@@H](CCc3ccc(C(F)(F)F)c(Cl)c3)C(=O)N2C1 [PP2154] |  |  | A (a compound having 10 or more and less than 20 is denoted as A) | A (a compound having 10 or more and less than 20 is denoted as A) |  | 
11 | 5.2 nM | CC[C@H](C)[C@@H]1NC(=O)[C@H](CC(C)C)N(C)C(=O)C[C@@H](C(=O)N2CCOCC2)N(C)C(=O)[C@H](C2CCCC2)N(C)C(=O)C2(CCC2)NC(=O)[C@@H]2CCCN2C(=O)[C@H](CCc2cc(F)c(C(F)(F)F)c(F)c2)NC(=O)CN(C)C(=O)[C@H](Cc2ccc(C(F)(F)F)cc2)N2CCCC[C@@H](C2=O)N(C)C(=O)CN(C)C1=O [PP0560] |  |  | B (a compound having 3 or more and less than 10 is denoted as B) | B (a compound having 3 or more and less than 10 is denoted as B) |  | 
12 | 3.9 nM | CCCN1C(=O)CN(C)C(=O)CN(C)C(=O)[C@H]([C@@H](C)CC)NC(=O)[C@H](CC(C)C)N(C)C(=O)C[C@@H](C(=O)N(C)C)N(C)C(=O)[C@H](C2CCCC2)N(C)C(=O)C2(CC(F)(F)C2)NC(=O)[C@@H]2CCCN2C(=O)[C@H](CCc2cc(F)c(C(F)(F)F)c(F)c2)NC(=O)CN(C)C(=O)[C@@H]1Cc1ccc(C(F)(F)F)cc1 [PP0745] ([NMeL]I[Sar][Sar][NPrPhe(4-CF3)][Sar][hPhe(3,5-F2-4-CF3)]P[Ac4c(3,3-F2)][NMeGly(cPent)][NMeD]-NMe2; lactam N-11) |  |  | B (a compound having 3 or more and less than 10 is denoted as B) | C (A compound having a KD ratio of 0.1 or more and less than 3 is denoted as C) |  | 
